Where a name gives a salt, the structure may show the parent alone. Read-outs that look alike come from different tables or passages of the source.
Molecular target: T1, human AspH (His6-AspH315–758) (Homo sapiens, UniProt Q12797)
T1 construct: N-Terminally His6-tagged human AspH315–758 (His6-AspH315–758) was produced in Escherichia coli BL21 (DE3) cells; made in house; host or cells: Escherichia coli BL21 (DE3), pET-28a(+) vector
T1 sequence (Q12797 315-758): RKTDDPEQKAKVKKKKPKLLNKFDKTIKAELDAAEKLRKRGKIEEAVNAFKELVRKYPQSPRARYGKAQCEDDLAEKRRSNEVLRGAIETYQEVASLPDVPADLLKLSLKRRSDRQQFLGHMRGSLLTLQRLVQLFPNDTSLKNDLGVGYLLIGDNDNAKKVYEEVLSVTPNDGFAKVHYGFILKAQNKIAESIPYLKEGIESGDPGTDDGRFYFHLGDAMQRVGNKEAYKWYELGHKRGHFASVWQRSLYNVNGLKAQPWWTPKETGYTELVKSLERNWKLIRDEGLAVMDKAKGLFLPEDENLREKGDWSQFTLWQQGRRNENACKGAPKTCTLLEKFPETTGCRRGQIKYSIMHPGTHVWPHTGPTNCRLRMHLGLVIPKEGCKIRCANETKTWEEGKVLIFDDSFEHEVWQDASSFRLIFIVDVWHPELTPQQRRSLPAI
Experiment: SPE-MS AspH inhibition assay (hFX-CP101-119 substrate hydroxylation)
Type: biochemical

[1] = AspH-inhibitor screening, 384-well Plate 1
[2] = AspH-inhibitor screening, 384-well Plate 1, substrate conversion
[3] = AspH-inhibitor screening, Plate 1-duplicate
[4] = AspH-inhibitor screening, Plate 1-duplicate, substrate conversion

| Molecule | Plate 1 (% inhibition) [1] | Plate 1 (% conversion) [2] | Plate 1-duplicate (% inhibition) [3] | Plate 1-duplicate (% conversion) [4] | Plate 1 (% conversion) | Plate 1 (% inhibition) | Plate 1-duplicate (% conversion) | Plate 1-duplicate (% inhibition) |
| --- | --- | --- | --- | --- | --- | --- | --- | --- |
| C#Cc1cccc(Nc2ncnc3cc(OC)c(OCCCCCCC(=O)NO)cc23)c1 [CUDC-101] | 70.67% | 17.12% | 72.15% | 16.26% |  |  |  |  |
| AZ 3146 | -12.15% | 55.36% | 4.56% |  |  |  |  |  |
| O=C(O)C(=O)O.[NH-][C@@H]1CCCC[C@H]1[NH-].[Pt+2] [Oxaliplatin] | 8.19% | 45.97% | 11.28% | 46.45% |  |  |  |  |
| O=[As]O[As]=O (centres unmarked) [Arsenic(III) oxide] |  |  |  |  | 46.14% | 7.82% | 49.86% | 4.39% |
| O=P(O)(O)C(O)(Cn1ccnc1)P(=O)(O)O [Zoledronic acid] | 19.60% | 40.70% | 13.13% | 45.53% |  |  |  |  |
| CNC(=O)c1cccc(-c2ccc3c(N4CCOC[C@@H]4C)nc(N4CCOC[C@@H]4C)nc3n2)c1 [AZD2014] | 7.73% | 46.18% | 4.94% | 49.59% |  |  |  |  |
| Cc1cc(Nc2cc(CN3CCOCC3)c3nc(C)c(Cc4ccc(Cl)cc4F)n3n2)n[nH]1 [LY2784544_Gandotinib] | -63.83% | 79.23% | -64.31% | 83.93% |  |  |  |  |
| CO[C@@]12[C@H](COC(N)=O)C3=C(C(=O)C(C)=C(N)C3=O)N1C[C@@H]1N[C@@H]12 [Mitomycin] | 1.59% | 49.02% | 2.59% | 50.76% |  |  |  |  |
| C/C(=C\c1csc(C)n1)[C@@H]1C[C@@H]2O[C@]2(C)CCC[C@H](C)[C@H](O)[C@@H](C)C(=O)C(C)(C)[C@@H](O)CC(=O)N1 [Ixabepilone] | -1.86% | 50.61% | -1.35% | 52.71% |  |  |  |  |
| C[C@]1(O)C[C@@H](c2nc(-c3ccc4ccc(-c5ccccc5)nc4c3)c3c(N)nccn32)C1 [OSI-906_Linsitinib] | 4.66% | 47.60% | -12.38% | 58.18% |  |  |  |  |

Second part, led by results:

| Plate 1 (% inhibition) [1] | Plate 1 (% conversion) [2] | Plate 1-duplicate (% inhibition) [3] | Plate 1-duplicate (% conversion) [4] | Molecule | Plate 1 (% conversion) | Plate 1 (% inhibition) | Plate 1-duplicate (% conversion) | Plate 1-duplicate (% inhibition) |
| --- | --- | --- | --- | --- | --- | --- | --- | --- |
| 16.02% | 42.35% | 8.84% | 47.66% | CO[C@H]1C[C@@H]2CC[C@@H](C)[C@@](O)(O2)C(=O)C(=O)N2CCCC[C@H]2C(=O)O[C@H]([C@H](C)C[C@@H]2CC[C@@H](OP(C)(C)=O)[C@H](OC)C2)CC(=O)[C@H](C)/C=C(\C)[C@@H](O)[C@@H](OC)C(=O)[C@H](C)C[C@H](C)/C=C/C=C/C=C/1C [Ridaforolimus] |  |  |  |  |
| 0.04% | 49.73% | 0.58% | 51.75% | Oc1nc(-c2ccc(C(F)(F)F)cc2)nc2c1CSCC2 [XAV-939] |  |  |  |  |
| 6.60% | 46.70% | -2.08% | 53.08% | CC(=O)O[C@H]1C(=O)[C@@]2(C)[C@H]([C@H](OC(=O)c3ccccc3)[C@]3(O)C[C@H](OC(=O)[C@H](O)[C@@H](NC(=O)c4ccccc4)c4ccccc4)C(C)=C1C3(C)C)[C@]1(OC(C)=O)CO[C@@H]1C[C@@H]2O [Paclitaxel] |  |  |  |  |
| 5.62% | 47.15% | -12.27% | 58.13% | O=C(Nc1cccnc1)N1CCC(Cc2cccc(Oc3ccc(C(F)(F)F)cn3)c2)CC1 [PF-3845] |  |  |  |  |
| 11.37% | 44.50% | 8.52% | 47.81% | CCN(CC)CCCC(C)Nc1c2ccc(Cl)cc2nc2ccc(OC)cc12 (centres unmarked) [Quinacrine HCl] |  |  |  |  |

From paper PMC7588595, “Small-molecule active pharmaceutical ingredients of approved cancer therapeutics inhibit human aspartate/asparagine-β-hydroxylase” (Bioorganic & Medicinal Chemistry, 2020)
